Source: article doi:10.1101/2025.11.04.686469, “Discovery of Host-Directed Small Molecules with Broad Anti-Leishmanial Efficacy” (bioRxiv, 2025)
Converted amounts (≈) assume the structure as drawn. Like-named read-outs stand apart in the source and are kept apart here.

Legend:
[1] = system: intracellular L. donovani amastigotes; test: Luminescent-based evaluation of intracellular anti-leishmanial activity in THP-1 macrophages; format: cell-based, Leishmania donovani; settings: for IC50: THP1 macrophages, luminescence assay, 72 hours of treatment, read-out: Intracellular L. donovani amastigotes Lum IC50; for Selectivity 24h LC50 / Lum IC50: host-directed effect vs cytotoxicity
Method in brief: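 PMA-differentiated THP-1 macrophages (150 nM, 72 h) were infected 18 h with firefly luciferase-expressing L. donovani LV82 promastigotes, then washed. Infected cells were treated with compounds at 0.1-10 μM for 72 h. Surviving intracellular amastigotes were quantified by firefly luciferase luminescence after cell lysis and 10 min substrate incubation at room temperature.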

[2] = Effect of compounds on host cell viability (MTT); format: cell-based; settings: human
Method in brief: (§1)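 Viability was read as MTT reduction: 2 h with 0.5 mg/mL, formazan dissolved in isopropanol, A560 with 670 nm background subtracted. The macrophages were PMA-differentiated THP-1 cells (150 nM, 72 h), treated 24 h at 1–50 μM or, for some compounds, 72 h at 1–300 μM.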

[3] = system: extracellular L. donovani promastigotes; test: Effect of compounds on promastigote viability (resazurin assay); format: cell-based, Leishmania donovani; settings: for MIC50: 72-hour incubation
Experimental: (§2) The effect of compounds on extracellular promastigotes was evaluated using a resazurin-based assay as described previously. In short, late log phase Leishmania promastigotes were seeded in a 96 well plate at 1 x 10^5 parasites per well and treated with drugs (0.5 – 200 μM) for 72 hours at 25°C. Ten microliters of resazurin (0.02% w/v) were added to the treated parasites to achieve a final concentration of 0.002% w/v and incubated for 24 hours. Viability of the promastigotes was assessed by fluorescence (excitation 544 nm, emission 590 nm, SpectraMax M2, Molecular Devices).

[4] = system: intracellular L. donovani amastigotes; test: Image-based (Giemsa staining) evaluation of intracellular anti-leishmanial activity in bone marrow derived macrophages; format: cell-based, Leishmania donovani
Experimental: Bone marrow derived macrophages (BMDMs) were isolated from BALB/c mice and cultured as previously described. […] Completely differentiated BMDMs are obtained after 7 days of culture with media change every 2 days. Harvested cells were seeded onto 10 mm glass cover slips at 5 x 10^5 cells/ well of a 24 well plate in DMEM media (without LCM) and allowed to adhere overnight. […] After infection, cells were washed three times with fresh media to remove extracellular promastigotes and treated with compounds for a 72-hour incubation. BMDM cells were then washed with phosphate buffered saline, fixed with ice-cold methanol, and stained with Giemsa (5% v/v in water). The cover slips with stained cells are mounted onto glass slides and imaged on EVOS XL (100X, Thermo Fisher Scientific). Leishmania amastigotes per 100 macrophages were determined in a blinded manner.

[5] = system: extracellular L. mexicana promastigotes; test: Effect of compounds on promastigote viability (resazurin assay); format: cell-based, Leishmania mexicana; settings: Leishmania mexicana, 72-hour incubation
Experimental: as §2

[6] = system: intracellular L. mexicana amastigotes; test: microbe, parasite or virus in culture; format: cell-based, Leishmania mexicana; settings: Leishmania mexicana, Macrophage, bone marrow derived macrophages, Giemsa staining
Experimental: Bone marrow derived macrophages (BMDMs) were isolated from BALB/c mice and cultured as previously described. Briefly, bone marrow was harvested from long bones of mice and the isolated cells were seeded at a concentration of 2 x 10^6 cells/mL in petri dishes with RPMI media supplemented with 10% FBS, 1% Penn-Strep and 10% L929 conditioned media (LCM). Completely differentiated BMDMs are obtained after 7 days of culture with media change every 2 days. Harvested cells were seeded onto 10 mm glass cover slips at 5 x 10^5 cells/ well of a 24 well plate in DMEM media (without LCM) and allowed to adhere overnight. BMDM cells are then infected overnight with LV82 L. donovani or L. mexicana (NR-51210) at a multiplicity of infection of 10. After infection, cells were washed three times with fresh media to remove extracellular promastigotes and treated with compounds for a 72-hour incubation. BMDM cells were then washed with phosphate buffered saline, fixed with ice-cold methanol, and stained with Giemsa (5% v/v in water). The cover slips with stained cells are mounted onto glass slides and imaged on EVOS XL (100X, Thermo Fisher Scientific). Leishmania amastigotes per 100 macrophages were determined in a blinded manner.

THP-1 macrophages = test: Effect of compounds on host cell viability (MTT); format: cell-based
Method in brief: as §1

[7] = system: intracellular L. donovani in WT and Lys K/O BMDMs; test: 197 target validation: Giemsa staining in BMDMs from wild-type and lysozyme knockout mice; format: cell-based, Leishmania donovani; settings: WT vs Lys K/O BMDMs
Source text: B6.129P2-Lyz2^tm1(cre)Ifo/J mice[23] (stock #004781, herein termed ‘Lys K/O’) were obtained from Jackson Laboratory. This strain has a nuclear-localized Cre recombinase inserted into the first coding ATG of the lysozyme 2 gene (Lyz2) which eliminates endogenous Lyz2 gene function. Wildtype C57BL6/J mice (stock #000664) were obtained as a control.
Bone marrow derived macrophages (BMDMs) were isolated from both mice and cultured as described above in “Image-based Evaluation of Intracellular Anti-Leishmanial Activity”. BMDMs were seeded onto glass cover slips, infected with LV82 L. donovani at a multiplicity of infection of 1:10. Cells were washed to remove extracellular promastigotes and treated with compounds (197, amphotericin B) for a 72-hour incubation. BMDM cells were then washed with phosphate buffered saline, fixed with ice-cold methanol, and stained with Giemsa (5% v/v in water). The cover slips with stained cells are mounted onto glass slides and imaged on EVOS XL (100X, Thermo Fisher Scientific). Leishmania amastigotes per 100 macrophages were determined in a blinded manner.

[8] = Leishmania donovani, resazurin assay (Table 3), read-out: L. donovani Extracellular promastigotes MIC50
[9] = Leishmania donovani, resazurin assay, read-out: Extracellular L. donovani promastigotes MIC50
[10] = Leishmania donovani, Macrophage, 72 h, Giemsa staining, 72-hour incubation, read-out: Intracellular L. donovani amastigotes IC50
[11] = Leishmania donovani, Macrophage, Giemsa staining (Table 3), read-out: L. donovani Intracellular amastigotes IC50
[12] = THP-1 macrophages, 72-hour incubation, MTT assay, read-out: 72 hr viability of THP-1 macrophages LC50
[13] = read-out: 24 hr viability of THP-1 macrophages 24h LC50, THP-1 macrophages, 24-hour incubation, MTT assay
[14] = resazurin assay, read-out: Extracellular L. donovani promastigotes MIC50
[15] = Giemsa staining, 72-hour incubation, read-out: Intracellular L. donovani amastigotes IC50

Row | Structure (SMILES) | CC50 at 24 h [2] [µM] | CC50 at 72 h [2] [µM] | MIC50 [3, 8] [µM] | MIC50 [3, 9] [µM] | IC50 [4, 10] [µM] | IC50 [4, 11] [µM] | MIC50 [5] [µM] | IC50 [1] [µM] | CC50 (THP-1 macrophages; [12]) [µM] | CC50 (THP-1 macrophages; [13]) [µM] | MIC50 [3, 14] [µM] | IC50 [4, 15] [µM] | also measured
1 | N#Cc1ccc(CNCC(=O)Nc2ccc(-n3nc(C(F)(F)F)cc3C3CCCCC3)cc2)cc1 [Compound 354] | 22 | 20.2 | 22.1 (≈ 10.6 µg/mL) | 22.1 (≈ 10.6 µg/mL) | 0.4 | 0.4 | 30.7 (≈ 14.8 µg/mL) |  |  |  |  |  | IC50 ([1]; Leishmania donovani, THP-1): 0.5 µM; Selectivity 24h LC50 / Lum IC50 [1]: 44.9; IC50 [6]: 3.5 µM
2 | N#Cc1cccc(CN2CCC(Nc3ccc(-n4nc(C(F)(F)F)cc4-c4ccc(-c5ccc(C(F)(F)F)cc5)cc4)cc3)C2)c1 (centres unmarked) [Compound 53] | > 50 | > 300 | > 200 | > 200 | 1.1 | < 2 | > 200 |  |  |  |  |  | IC50 ([1]; Leishmania donovani, THP-1): 0.4 µM; Selectivity 24h LC50 / Lum IC50 [1]: >112.6; CC50 (THP-1 macrophages): > 300 µM; reduction in macrophage viability (THP-1 macrophages; 72hr incubation up to 300μM): Neither compound had any reduction; direct effect on extracellular promastigote viability ([3]; resazurin assay, strain not named for 53, L. donovani for 197): no direct effects
3 | C[C@@H]1[C@H](O)[C@@H](C)/C=C/C=C/C=C/C=C/C=C/C=C/C=C/[C@H](O[C@@H]2O[C@H](C)[C@@H](O)[C@H](N)[C@@H]2O)C[C@@H]2O[C@](O)(C[C@@H](O)C[C@@H](O)[C@H](O)CC[C@@H](O)C[C@@H](O)CC(=O)O[C@H]1C)C[C@H](O)[C@H]2C(=O)O [Amphotericin B, reference compound] |  |  |  |  |  |  |  |  |  |  |  |  | anti-leishmanial activity in Lys K/O BMDMs [7]: retained its anti-leishmanial activity
4 | NCC(=O)Nc1ccc(-n2nc(C(F)(F)F)cc2-c2ccc3c(ccc4ccccc43)c2)cc1 [AR-12, reference compound] | 13.3 | 8.6 | 2.2 (≈ 1.01 µg/mL) | 2.2 (≈ 1.01 µg/mL) | 2.2 | 2.2 | 15.1 (≈ 6.95 µg/mL) |  |  |  |  |  | IC50 [6]: 1.5 µM
5 | CC(C)(C)OC(=O)NC1CCN(c2ccc(-n3nncc3-c3ccc(C(F)(F)F)cc3)cc2)C1 (centres unmarked) [Compound 133] |  |  |  |  |  |  |  | 0.9 | 33.9 | 29 | 13.0 (≈ 6.16 µg/mL) | 1.7 | 
6 | N[C@@H]1CCN(c2ccc(-n3nc(C(F)(F)F)cc3-c3ccc(-c4ccc(C(F)(F)F)cc4)cc3)cc2)C1 [Compound 129] |  |  |  |  |  |  |  | 0.1 | 6.2 | 6.3 | 1.7 (≈ 0.878 µg/mL) | 0.4 | 
7 | FC(F)(F)c1ccc(-c2nc(C(F)(F)F)cn2-c2ccc(NC3CCNCC3)cc2)cc1 [Compound 408] |  |  |  |  |  |  |  | 1.5 | 25.1 | 25.4 | 0.9 (≈ 0.409 µg/mL) | 2.6 | 
8 | N[C@H]1CCN(c2ccc(-n3nc(C(F)(F)F)cc3-c3ccc(-c4ccc(C(F)(F)F)cc4)cc3)cc2)C1 [Compound 130] |  |  |  |  |  |  |  | 0.2 | 6.4 | 4.2 | 2.1 (≈ 1.08 µg/mL) | 1.6 | 
9 | NCC(=O)Nc1ccc(-n2cc(C(F)(F)F)nc2-c2ccc(-c3ccccc3)cc2)cc1 [Compound 50] |  |  |  |  |  |  |  | 1.5 | 42.7 | 23.5 | 14.6 (≈ 6.37 µg/mL) | 9.1 | 
